One compound from patent US20230144898A1, “INHIBITOR OF ASPARTIC ACID SYNTHESIS IN TUMOR CELLS, INHIBITOR OF SPHEROID FORMATION OF TUMOR CELLS, INHIBITOR OF TUMOR CELL METASTASIS, ACTIVITY ENHANCER OF GLYCOLYTIC INHIBITOR, AND PHARMACEUTICAL COMPOSITION FOR SUPPRESSING AND/OR PREVENTING TUMOR METASTASIS” (CCI HOLDINGS INC., priority 2020, published 2023) can be followed below.

One data set concerns A2058 cells. The data set is described as follows: Western blotting of cancer-related proteins, A2058 cells (Test Example 10). It counts as cell-based, human. To be noted: 3 µM, 56 hours. (In general: A western blot detects proteins with antibodies after separation by electrophoresis.)
The nature of data set [1]: Microscopic observation of organ tissue sections of model mice (Test Example 2). It counts as in vivo. To be noted: heart, normal site of lung, cerebrum, kidney, liver, spleen, 50 mg/kg i.p. As to the method: Furthermore, when the model mouse to which neopetasin or corn oil was administered was dissected in the above, sections were prepared from the tissues of each organ (heart, normal site of lung, cerebrum, kidney, liver, spleen) and were observed using a microscope. […] The results are consistent with specificity of the action of neopetasin on tumor cells in vitro as described above in Test

Data set [2] deals with KMeC cells (canine malignant melanoma cells). The data set is described as follows: Western blotting of cancer-related proteins, KMeC cells (Test Example 10). It counts as cell-based. To be noted: 3 µM, 56 hours. As to the method:
KMeC cells (canine malignant melanoma cells) were obtained from the Veterinary Surgery Laboratory, Graduate School of Agricultural and Life Sciences, the University of Tokyo. KMeC cells were cultured in an incubator (air/CO2 = 95/5 (v/v)) at 37° C. using RPMI1640 medium.
To start with, each cell was seeded at 0.5×10^5 cells/mL in a six-well plate, and after 24 hours of seeding, neopetasin (final concentration: 3 µM) was suspended in a medium and incubated for 56 hours. […] thus treated with neopetasin (3 µM) for 56 hours were recovered with a cell scraper. Furthermore, DMSO was administered to the negative control section, and the same experiment was performed.
Next, the cells were homogenized in ice-cold lysis buffer (10 mM Tris-HCl (pH 7.4), 1% (w/v) NP-40, 0.1% (w/v) deoxycholic acid, 0.1% (w/v) SDS, 150 mM NaCl, 1 mM EDTA, and 1% (w/v) protease inhibitor cocktail (Sigma-Aldrich) and allowed to stand on ice for 20 minutes. The homogenate was centrifuged at 13,000 rpm for 20 minutes (4° C.), and then the supernatant was collected as a sample for Western blotting. The protein content in the sample was measured using a DC protein assay kit (manufactured by Bio-Rad Laboratories, Inc.). A sample (protein amount of 5 µg) was separated by SDS-PAGE using 10.0 or 12.5% (w/v) polyacrylamide gel, and transferred to a PVDF membrane (PerkinElmer Life Science Co., Ltd). […]

Data set [3] deals with mouse-derived metastatic breast cancer cells Jyg-MC(B). Description: Mouse natural metastasis model (Test Example 12). It counts as in vivo. The text has this:
In general, the metastasis process follows the course of primary tumor formation, invasion of blood vessels and lymphatic vessels, and fixation and proliferation to lung. Here, the model prepared in Test Example 2 verifies only kinetics of tumor cells after entry into the blood vessel, and the metastasis phenomenon occurring in the actual clinical example also includes other processes in addition to invasion of blood vessels and lymphatic vessels from the primary tumor. Thereupon, in this test example, a subcutaneous tumor (a primary tumor) was generated in a mouse, and a model in which the tumor cells metastasized to lung following all metastasis processes (a natural metastasis model) was prepared.
Specifically, to start with, in order to prepare a natural metastasis model, a nude mouse (BALBc nu/nu, female, 4 weeks old, purchased from Japan SLC) was subcutaneously inoculated with mouse-derived metastatic breast cancer cells Jyg-MC(B). After 24 days of incubation, neopetasin (NP) was administered intraperitoneally at a dose of 50 mg/kg and treated a total of 6 times for 16 days (inoculation at 0, 2, 4, 6, 10, 14 days, respectively). Note that treatment procedure at this time is illustrated in FIG. 13.

For a further data set, the system named is B16F10 cells. Description: Western blotting, temporal changes of AMPK, FAK, Akt, ERK1/2 (Test Example 11). The format is cell-based, mouse. The conditions noted are these: 3 µM; 3, 8, 24 and 56 hours. As to the method:
Specifically, for B16F10 cells treated with neopetasin (3 µM) or metformin (5000 µM) through the same method as in Test Example 1, the cells were recovered at each of 3 hours, 8 hours, 24 hours, and 56 hours after the treatment with these compounds, and the contents of various proteins were measured by Western blotting through the same method as in Test Example 10. Furthermore, DMSO was administered to the negative control section, and the same experiment was performed.

Setting [4] is: 50 mg/kg intraperitoneally, 6 times for 16 days.

Entries after “also recorded” stand apart in the source; their conditions may differ.

`C=C(C)[C@H]1C[C@@]2(C)C(=CC1=O)CC[C@@H](OC(=O)/C(C)=C\C)[C@@H]2C` [Neopetasin, neopetasin]: the “expression of cancer-related molecules” value in the data set with A2058 cells is listed as “inhibit a wide range of cancer-related molecules”. In addition, the “histological and morphological changes / toxicity in organs” value in data set [1] was “no histological and morphological changes; also recorded: showed little toxicity to the liver, kidney, spleen”. In data set [2], the “expression of cancer-related molecules” value is “inhibit a wide range of cancer-related molecules”. Besides, in data set [3] (setting [4]), the lung metastasis lesions result is “significant decrease in lung metastasis lesions” and the “lymph node metastasis (weight of the axillary lymph node)” value is reported as “exhibits an inhibitory effect on lymph node metastasis”. For the same compound, in data set [3] (excluding examples without lymph node swelling), the “degree and weight of lymph node swelling” value is given as “decreased”. Moreover, in the data set with B16F10 cells, the AMPK change entry was “changes at the earliest stage (3 hours)”; the “Akt and ERK” value is on record as “inactivated”; the FAK entry is reported as “inactivated”.
